From PubChem BioAssay AID1919006 (Molecular Pharmacology Branch, DTP, NCI, 2023)
Several values for one entry are separate records, joined by “and”; a condition that tells them apart may be missing. Equal entries are not always repeated.

System: 885512-296-R-J2-PDC complex spheroid growth, % test/control
Experiment: Anticancer human tumor 885512-296-R-J2-PDC patient-derived breast carcinoma cell line growth inhibition [AhR]
Details: for viability, T/C: stronger effect = lower value
Summary of the method: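 Agents were dosed in half-log steps down from roughly clinical Cmax, or from 10 microM where Cmax was unknown, alone and with AhR antagonists. Read-out: percent test/control growth of tumor spheroids containing HUVEC and MSC stromal cells.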

[1] = curve of first compound, second compound 0.1 µM
[2] = curve of first compound, second compound 0.316 µM
[3] = curve of first compound, second compound 1 µM
[4] = curve of first compound, second compound 3.16 µM
[5] = curve of first compound, second compound 10 µM
[6] = second compound 0.1 µM, first compound 0.0316 µM
[7] = second compound 0.1 µM, first compound 0.1 µM
[8] = second compound 0.1 µM, first compound 0.316 µM
[9] = second compound 0.1 µM, first compound 1 µM
[10] = second compound 0.316 µM, first compound 0.0316 µM
[11] = second compound 0.316 µM, first compound 0.1 µM
[12] = second compound 0.316 µM, first compound 0.316 µM
[13] = second compound 0.316 µM, first compound 1 µM
[14] = second compound 1 µM, first compound 0.0316 µM
[15] = second compound 1 µM, first compound 0.1 µM
[16] = second compound 1 µM, first compound 0.316 µM
[17] = second compound 1 µM, first compound 1 µM
[18] = second compound 3.16 µM, first compound 0.0316 µM
[19] = second compound 3.16 µM, first compound 0.1 µM
[20] = second compound 3.16 µM, first compound 0.316 µM
[21] = second compound 3.16 µM, first compound 1 µM
[22] = second compound 10 µM, first compound 0.0316 µM
[23] = second compound 10 µM, first compound 0.1 µM
[24] = second compound 10 µM, first compound 0.316 µM
[25] = second compound 10 µM, first compound 1 µM
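Note: spheroids exposed to compounds for seven days.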

## CC1COCCN1c1cc(-c2ccnn2C)c2ccnc(-c3ccn[nH]3)c2n1 (configuration not stated) + CC(CO)NC(=O)c1cc(-c2ccc(Cl)cc2)nn(-c2cnn(C)c2)c1=O
[1]
  IC50: 0.0431 µM
[2]
  IC50: 0.0341 µM
[3]
  IC50: 0.0351 µM
[4]
  IC50: 0.0291 µM
[5]
  IC50: 0.0196 µM
Second compound 0.1 µM, first compound 0.00316 µM
  viability, T/C: 112%
Second compound 0.1 µM, first compound 0.01 µM
  viability, T/C: 87.6%
[6]
  viability, T/C: 67.8%
[7]
  viability, T/C: 10.4%
[8]
  viability, T/C: 3.86%
[9]
  viability, T/C: 2.47%
Second compound 0.316 µM, first compound 0.00316 µM
  viability, T/C: 96.6%
Second compound 0.316 µM, first compound 0.01 µM
  viability, T/C: 84.4%
[10]
  viability, T/C: 54.2%
[11]
  viability, T/C: 10.6%
[12]
  viability, T/C: 3.26%
[13]
  viability, T/C: 2.5%
Second compound 1 µM, first compound 0.00316 µM
  viability, T/C: 93.4%
Second compound 1 µM, first compound 0.01 µM
  viability, T/C: 91.7%
[14]
  viability, T/C: 53.4%
[15]
  viability, T/C: 10.7%
[16]
  viability, T/C: 2.7%
[17]
  viability, T/C: 2.39%
Second compound 3.16 µM, first compound 0.00316 µM
  viability, T/C: 91.2%
Second compound 3.16 µM, first compound 0.01 µM
  viability, T/C: 87.7%
[18]
  viability, T/C: 47%
[19]
  viability, T/C: 6.94%
[20]
  viability, T/C: 2.32%
[21]
  viability, T/C: 2.05%
Second compound 10 µM, first compound 0.00316 µM
  viability, T/C: 90.5%
Second compound 10 µM, first compound 0.01 µM
  viability, T/C: 84.2%
[22]
  viability, T/C: 25.7%
[23]
  viability, T/C: 4.34%
[24]
  viability, T/C: 2.45%
[25]
  viability, T/C: 2.06%

## O=C(c1cc(Cc2n[nH]c(=O)c3ccccc23)ccc1F)N1CCN(C(=O)C2CC2)CC1 + Cc1cncc(-c2nc(NCCc3c[nH]c4ccccc34)c3ncn(C(C)C)c3n2)c1
[1]
  IC50: 6.62 µM
[2]
  IC50: 7.17 µM
[3]
  IC50: 6.44 µM
[4]
  IC50: 3.07 µM
[5]
  IC50: < 0.0316 µM
[6]
  viability, T/C: 109%
[7]
  viability, T/C: 102%
[8]
  viability, T/C: 107%
[9]
  viability, T/C: 112%
Second compound 0.1 µM, first compound 3.16 µM
  viability, T/C: 86.4%
Second compound 0.1 µM, first compound 10 µM
  viability, T/C: 29.7%
[10]
  viability, T/C: 107%
[11]
  viability, T/C: 98.4%
[12]
  viability, T/C: 97.2%
[13]
  viability, T/C: 109%
Second compound 0.316 µM, first compound 3.16 µM
  viability, T/C: 95%
Second compound 0.316 µM, first compound 10 µM
  viability, T/C: 31.3%
[14]
  viability, T/C: 85.3%
[15]
  viability, T/C: 82.7%
[16]
  viability, T/C: 99.1%
[17]
  viability, T/C: 87.2%
Second compound 1 µM, first compound 3.16 µM
  viability, T/C: 81.9%
Second compound 1 µM, first compound 10 µM
  viability, T/C: 30.3%
[18]
  viability, T/C: 54.4%
[19]
  viability, T/C: 60.1%
[20]
  viability, T/C: 62.5%
[21]
  viability, T/C: 60.1%
Second compound 3.16 µM, first compound 3.16 µM
  viability, T/C: 49.8%
Second compound 3.16 µM, first compound 10 µM
  viability, T/C: 24.6%
[22]
  viability, T/C: 15.5%
[23]
  viability, T/C: 19.7%
[24]
  viability, T/C: 17.1%
[25]
  viability, T/C: 17.1%
Second compound 10 µM, first compound 3.16 µM
  viability, T/C: 17.5%
Second compound 10 µM, first compound 10 µM
  viability, T/C: 15.2%

## COc1cc(C2c3cc4c(cc3C(OC3OC5COC(C)OC5C(O)C3O)C3COC(=O)C23)OCO4)cc(OC)c1O (configuration not stated)
Compound 0.0316 µM
  viability, T/C: 107% and 84.7% and 91.2%
Compound 0.1 µM
  viability, T/C: 96% and 92.5% and 87.4%
Compound 0.316 µM
  viability, T/C: 78.1% and 72.5% and 59.1%
Compound 1 µM
  viability, T/C: 29.6% and 44.8% and 14.3%
Compound 3.16 µM
  viability, T/C: 10.7% and 9.52% and 9.14%
Compound 10 µM
  viability, T/C: 8.19% and 5.47% and 7.82%
Curve of compound
  IC50: 0.613 µM and 0.774 µM and 0.399 µM

## CC(C)CC(NC(=O)C(Cc1ccccc1)NC(=O)c1cnccn1)B(O)O (configuration not stated) + CC(CO)NC(=O)c1cc(-c2ccc(Cl)cc2)nn(-c2cnn(C)c2)c1=O
[1]
  IC50: 0.00522 µM
[2]
  IC50: 0.00567 µM
[3]
  IC50: 0.00545 µM
[4]
  IC50: 0.00542 µM
[5]
  IC50: 0.00575 µM
Second compound 0.1 µM, first compound 0.000949 µM
  viability, T/C: 97%
Second compound 0.1 µM, first compound 0.003 µM
  viability, T/C: 86.5%
Second compound 0.1 µM, first compound 0.00949 µM
  viability, T/C: 10.7%
Second compound 0.1 µM, first compound 0.03 µM
  viability, T/C: 0.69%
Second compound 0.1 µM, first compound 0.0949 µM
  viability, T/C: 0.12%
Second compound 0.1 µM, first compound 0.3 µM
  viability, T/C: 0.12%
Second compound 0.316 µM, first compound 0.000949 µM
  viability, T/C: 96.1%
Second compound 0.316 µM, first compound 0.003 µM
  viability, T/C: 99.3%
Second compound 0.316 µM, first compound 0.00949 µM
  viability, T/C: 11.2%
Second compound 0.316 µM, first compound 0.03 µM
  viability, T/C: 0.78%
Second compound 0.316 µM, first compound 0.0949 µM
  viability, T/C: 0.16%
Second compound 0.316 µM, first compound 0.3 µM
  viability, T/C: 0.08%
Second compound 1 µM, first compound 0.000949 µM
  viability, T/C: 98.4%
Second compound 1 µM, first compound 0.003 µM
  viability, T/C: 94%
Second compound 1 µM, first compound 0.00949 µM
  viability, T/C: 9.2%
Second compound 1 µM, first compound 0.03 µM
  viability, T/C: 0.72%
Second compound 1 µM, first compound 0.0949 µM
  viability, T/C: 0.26%
Second compound 1 µM, first compound 0.3 µM
  viability, T/C: 0.12%
Second compound 3.16 µM, first compound 0.000949 µM
  viability, T/C: 89.4%
Second compound 3.16 µM, first compound 0.003 µM
  viability, T/C: 91.6%
Second compound 3.16 µM, first compound 0.00949 µM
  viability, T/C: 11.7%
Second compound 3.16 µM, first compound 0.03 µM
  viability, T/C: 0.76%
Second compound 3.16 µM, first compound 0.0949 µM
  viability, T/C: 0.16%
Second compound 3.16 µM, first compound 0.3 µM
  viability, T/C: 0.1%
Second compound 10 µM, first compound 0.000949 µM
  viability, T/C: 91.6%
Second compound 10 µM, first compound 0.003 µM
  viability, T/C: 113%
Second compound 10 µM, first compound 0.00949 µM
  viability, T/C: 9.64%
Second compound 10 µM, first compound 0.03 µM
  viability, T/C: 0.68%
Second compound 10 µM, first compound 0.0949 µM
  viability, T/C: 0.18%
Second compound 10 µM, first compound 0.3 µM
  viability, T/C: 0.14%
